In publication PMC6210068 (ACS Omega, 2018):

Legend:
DOR [1] = target: T1, DOR (Homo sapiens, UniProt P41143); assay: Radioligand binding at DOR
KOR [2] = target: T2, KOR (Homo sapiens, UniProt P41145); assay: biochemical; type: binding; details: for Ki: KOR, [3H]U69593, mean ± SEM, N = 2–4
MOR [3] = target: T3, MOR (Homo sapiens, UniProt P35372); assay: biochemical; type: binding; details: for MOR, inhibition of radioligand binding at 10 μM (class): Table 2
rat kidney TSPO = rat kidney TSPO (Rattus norvegicus, UniProt P16257); assay: Radioligand binding at TSPO; details: for Ki: TSPO, rat TSPO, [3H]PK11195; for TSPO, inhibition of radioligand binding at 10 μM (class): Table 2
Sequence of rat kidney TSPO (P16257 whole entry): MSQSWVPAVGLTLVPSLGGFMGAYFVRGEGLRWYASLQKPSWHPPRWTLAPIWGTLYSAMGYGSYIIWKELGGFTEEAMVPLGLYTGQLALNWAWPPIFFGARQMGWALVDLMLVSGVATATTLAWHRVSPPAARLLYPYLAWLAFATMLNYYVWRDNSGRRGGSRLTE

hDAT = hDAT (Homo sapiens, UniProt Q01959); assay: Radioligand binding at DAT; details: 10 μM; [3H]WIN35428; negative = enhanced radioligand binding
Sequence of hDAT (Q01959 whole entry): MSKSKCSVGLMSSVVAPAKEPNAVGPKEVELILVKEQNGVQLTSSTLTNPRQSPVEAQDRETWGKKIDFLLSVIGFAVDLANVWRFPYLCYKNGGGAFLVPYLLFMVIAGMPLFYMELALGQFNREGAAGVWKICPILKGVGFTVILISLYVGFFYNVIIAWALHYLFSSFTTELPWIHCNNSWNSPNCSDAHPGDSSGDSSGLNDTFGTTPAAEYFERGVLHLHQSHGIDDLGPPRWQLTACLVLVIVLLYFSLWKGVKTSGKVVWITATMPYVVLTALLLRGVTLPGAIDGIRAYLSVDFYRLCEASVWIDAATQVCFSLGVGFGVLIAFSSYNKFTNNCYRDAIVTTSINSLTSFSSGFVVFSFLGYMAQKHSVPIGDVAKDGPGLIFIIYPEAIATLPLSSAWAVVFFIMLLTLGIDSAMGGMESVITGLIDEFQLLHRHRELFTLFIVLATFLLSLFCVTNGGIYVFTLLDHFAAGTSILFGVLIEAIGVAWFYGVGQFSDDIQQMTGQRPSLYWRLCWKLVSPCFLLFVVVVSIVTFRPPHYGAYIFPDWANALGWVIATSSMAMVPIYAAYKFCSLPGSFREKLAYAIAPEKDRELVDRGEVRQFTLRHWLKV

5HT2C serotonin receptor = target: T4, 5HT2C serotonin receptor (Homo sapiens, UniProt P28335); assay: PDSP off-target binding, 5HT2C
T4 sequence (P28335 33-458): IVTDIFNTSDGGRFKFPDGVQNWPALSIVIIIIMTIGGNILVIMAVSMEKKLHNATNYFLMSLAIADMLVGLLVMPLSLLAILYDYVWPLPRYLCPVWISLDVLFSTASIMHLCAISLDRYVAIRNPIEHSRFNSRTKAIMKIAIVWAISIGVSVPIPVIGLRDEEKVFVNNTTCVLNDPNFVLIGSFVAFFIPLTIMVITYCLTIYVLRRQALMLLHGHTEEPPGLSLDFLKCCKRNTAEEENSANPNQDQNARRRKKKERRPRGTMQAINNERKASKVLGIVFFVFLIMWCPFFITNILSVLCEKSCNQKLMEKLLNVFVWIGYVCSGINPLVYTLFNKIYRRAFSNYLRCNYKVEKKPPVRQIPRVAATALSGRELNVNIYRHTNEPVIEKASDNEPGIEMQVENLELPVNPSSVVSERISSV

mA3AR = target: T5, mA3AR (Mus musculus, UniProt Q61618); details: ref Tosh et al. 2,3,6,34,35,37; cited from earlier work
T5 sequence (Q61618 1-319): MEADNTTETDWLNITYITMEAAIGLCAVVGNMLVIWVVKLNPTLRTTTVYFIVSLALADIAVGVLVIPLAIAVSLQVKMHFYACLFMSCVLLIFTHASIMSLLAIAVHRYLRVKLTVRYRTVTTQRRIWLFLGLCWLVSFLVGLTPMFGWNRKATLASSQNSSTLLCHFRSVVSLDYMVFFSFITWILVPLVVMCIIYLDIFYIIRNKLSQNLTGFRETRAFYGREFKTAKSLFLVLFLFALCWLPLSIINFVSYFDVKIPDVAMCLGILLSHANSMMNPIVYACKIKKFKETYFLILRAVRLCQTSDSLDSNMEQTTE

hA3AR = target: T6, hA3AR (Homo sapiens, UniProt P0DMS8); assay: A3AR binding
T6 sequence (P0DMS8 1-318): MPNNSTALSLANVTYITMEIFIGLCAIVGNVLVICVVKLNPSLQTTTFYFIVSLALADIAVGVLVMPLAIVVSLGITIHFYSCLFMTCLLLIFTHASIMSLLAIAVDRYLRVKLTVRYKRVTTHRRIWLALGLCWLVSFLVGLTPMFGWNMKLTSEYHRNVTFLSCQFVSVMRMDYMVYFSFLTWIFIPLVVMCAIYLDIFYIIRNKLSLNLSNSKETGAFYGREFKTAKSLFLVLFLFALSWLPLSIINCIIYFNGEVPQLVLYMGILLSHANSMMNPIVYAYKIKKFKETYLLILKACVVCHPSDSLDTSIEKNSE

5HT2A serotonin receptor = 5HT2A serotonin receptor (Homo sapiens, UniProt P28223); assay: PDSP off-target binding, 5HT2A
Sequence of 5HT2A serotonin receptor (P28223 whole entry): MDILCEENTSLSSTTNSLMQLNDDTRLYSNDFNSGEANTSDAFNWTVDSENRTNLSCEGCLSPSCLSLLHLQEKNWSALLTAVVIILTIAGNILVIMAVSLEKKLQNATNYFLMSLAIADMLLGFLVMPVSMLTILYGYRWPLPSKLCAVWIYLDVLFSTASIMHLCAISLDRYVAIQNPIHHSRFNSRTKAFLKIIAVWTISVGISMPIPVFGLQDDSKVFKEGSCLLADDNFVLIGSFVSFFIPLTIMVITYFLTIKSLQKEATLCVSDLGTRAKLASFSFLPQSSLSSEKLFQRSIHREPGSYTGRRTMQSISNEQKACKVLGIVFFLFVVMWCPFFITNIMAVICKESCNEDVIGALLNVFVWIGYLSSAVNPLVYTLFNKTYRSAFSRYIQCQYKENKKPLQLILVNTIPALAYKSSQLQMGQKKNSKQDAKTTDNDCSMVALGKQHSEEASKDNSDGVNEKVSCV

5HT2B serotonin receptor = 5HT2B serotonin receptor (Homo sapiens, UniProt P41595); assay: PDSP off-target binding, 5HT2B
Sequence of 5HT2B serotonin receptor (P41595 whole entry): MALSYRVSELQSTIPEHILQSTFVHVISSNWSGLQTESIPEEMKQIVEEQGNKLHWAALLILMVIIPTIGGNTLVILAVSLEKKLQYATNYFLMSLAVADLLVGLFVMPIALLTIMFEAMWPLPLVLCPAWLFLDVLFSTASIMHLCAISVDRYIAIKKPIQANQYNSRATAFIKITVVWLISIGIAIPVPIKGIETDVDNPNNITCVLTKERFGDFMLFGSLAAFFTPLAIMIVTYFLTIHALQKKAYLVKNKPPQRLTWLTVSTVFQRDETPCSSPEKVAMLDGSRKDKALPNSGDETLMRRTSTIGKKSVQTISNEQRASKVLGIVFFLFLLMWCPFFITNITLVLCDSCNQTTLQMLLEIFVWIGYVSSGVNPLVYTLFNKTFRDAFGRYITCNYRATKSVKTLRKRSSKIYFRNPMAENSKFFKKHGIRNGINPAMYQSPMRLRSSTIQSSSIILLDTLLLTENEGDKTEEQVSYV

muscarinic M5 receptor = muscarinic M5 receptor (Homo sapiens, UniProt P08912); assay: PDSP off-target binding, muscarinic M5
Sequence of muscarinic M5 receptor (P08912 whole entry): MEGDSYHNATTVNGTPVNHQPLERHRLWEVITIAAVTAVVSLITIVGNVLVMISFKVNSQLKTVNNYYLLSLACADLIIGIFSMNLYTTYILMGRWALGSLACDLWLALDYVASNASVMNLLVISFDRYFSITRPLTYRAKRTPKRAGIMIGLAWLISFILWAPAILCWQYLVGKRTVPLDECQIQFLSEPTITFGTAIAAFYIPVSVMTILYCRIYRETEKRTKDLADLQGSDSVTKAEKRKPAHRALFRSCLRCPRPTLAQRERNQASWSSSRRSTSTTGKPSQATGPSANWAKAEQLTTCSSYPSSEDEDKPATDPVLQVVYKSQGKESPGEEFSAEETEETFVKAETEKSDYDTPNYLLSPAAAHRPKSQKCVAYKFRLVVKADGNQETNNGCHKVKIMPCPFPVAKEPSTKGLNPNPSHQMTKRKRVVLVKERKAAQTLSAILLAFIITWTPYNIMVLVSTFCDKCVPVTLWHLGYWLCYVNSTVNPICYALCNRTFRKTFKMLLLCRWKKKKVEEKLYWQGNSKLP

hA1AR = target: T7, hA1AR (Homo sapiens, UniProt P30542); assay: hA1AR binding
T7 sequence (P30542 1-326): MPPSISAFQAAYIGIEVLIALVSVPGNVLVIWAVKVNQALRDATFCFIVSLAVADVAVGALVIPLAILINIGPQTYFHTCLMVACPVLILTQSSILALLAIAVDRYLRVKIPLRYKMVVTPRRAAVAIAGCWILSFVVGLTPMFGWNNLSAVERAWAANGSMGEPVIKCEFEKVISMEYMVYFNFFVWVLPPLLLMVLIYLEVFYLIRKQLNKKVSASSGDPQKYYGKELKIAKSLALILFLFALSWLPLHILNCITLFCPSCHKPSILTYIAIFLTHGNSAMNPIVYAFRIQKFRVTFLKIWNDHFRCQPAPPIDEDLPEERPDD

hA2AAR = hA2AAR (Homo sapiens, UniProt P29274); assay: hA2AAR binding; details: read-out: binding inhibition at hA2AAR (% at 10 μM)
Sequence of hA2AAR (P29274 whole entry): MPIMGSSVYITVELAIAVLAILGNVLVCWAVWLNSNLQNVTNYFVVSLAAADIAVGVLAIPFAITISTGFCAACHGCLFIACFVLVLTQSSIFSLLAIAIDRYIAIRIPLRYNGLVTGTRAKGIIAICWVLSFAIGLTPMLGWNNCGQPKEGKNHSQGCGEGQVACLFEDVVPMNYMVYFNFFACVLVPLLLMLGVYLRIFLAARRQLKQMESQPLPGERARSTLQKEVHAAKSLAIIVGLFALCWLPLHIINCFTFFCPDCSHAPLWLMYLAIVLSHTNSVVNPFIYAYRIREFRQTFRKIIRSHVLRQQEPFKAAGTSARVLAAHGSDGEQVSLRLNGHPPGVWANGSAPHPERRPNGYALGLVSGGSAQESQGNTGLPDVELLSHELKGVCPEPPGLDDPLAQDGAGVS

KOR [4] = target: T2, KOR; type: cell-based
KOR [5] = target: T2, KOR; assay: cell-based; type: cell-based
[6] = target: human α2C adrenergic receptor (Homo sapiens, UniProt P18825); assay: PDSP off-target binding, α2C adrenergic
Sequence of human α2C adrenergic receptor (P18825 whole entry): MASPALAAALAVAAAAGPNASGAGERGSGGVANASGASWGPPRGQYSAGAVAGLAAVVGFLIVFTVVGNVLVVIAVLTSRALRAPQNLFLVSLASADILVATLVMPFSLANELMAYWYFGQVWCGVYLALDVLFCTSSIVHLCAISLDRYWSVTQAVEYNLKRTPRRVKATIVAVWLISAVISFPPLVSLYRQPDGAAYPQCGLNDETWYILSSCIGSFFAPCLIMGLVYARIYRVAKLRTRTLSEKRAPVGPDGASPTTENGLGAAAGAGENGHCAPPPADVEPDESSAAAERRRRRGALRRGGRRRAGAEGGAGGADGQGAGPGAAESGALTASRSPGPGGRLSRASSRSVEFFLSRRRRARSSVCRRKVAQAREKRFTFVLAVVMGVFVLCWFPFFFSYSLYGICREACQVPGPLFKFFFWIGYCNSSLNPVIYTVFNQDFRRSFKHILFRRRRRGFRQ

mA1AR = target: T8, mA1AR (Mus musculus, UniProt Q60612); assay: mA1AR binding; details: read-out: mA1AR binding, % inhibition at 10 μM
T8 sequence (Q60612 1-326): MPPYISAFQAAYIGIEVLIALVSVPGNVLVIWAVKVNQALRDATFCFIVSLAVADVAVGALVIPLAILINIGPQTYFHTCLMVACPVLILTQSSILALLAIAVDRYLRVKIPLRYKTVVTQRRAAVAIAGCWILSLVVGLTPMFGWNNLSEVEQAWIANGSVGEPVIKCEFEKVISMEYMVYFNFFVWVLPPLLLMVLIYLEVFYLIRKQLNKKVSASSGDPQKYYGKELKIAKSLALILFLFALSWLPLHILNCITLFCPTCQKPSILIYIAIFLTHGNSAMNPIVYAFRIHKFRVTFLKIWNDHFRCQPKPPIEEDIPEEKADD

mA2AAR = mA2AAR (Mus musculus, UniProt Q60613); assay: mA2AAR binding; details: read-out: mA2AAR binding, % inhibition at 10 μM
Sequence of mA2AAR (Q60613 whole entry): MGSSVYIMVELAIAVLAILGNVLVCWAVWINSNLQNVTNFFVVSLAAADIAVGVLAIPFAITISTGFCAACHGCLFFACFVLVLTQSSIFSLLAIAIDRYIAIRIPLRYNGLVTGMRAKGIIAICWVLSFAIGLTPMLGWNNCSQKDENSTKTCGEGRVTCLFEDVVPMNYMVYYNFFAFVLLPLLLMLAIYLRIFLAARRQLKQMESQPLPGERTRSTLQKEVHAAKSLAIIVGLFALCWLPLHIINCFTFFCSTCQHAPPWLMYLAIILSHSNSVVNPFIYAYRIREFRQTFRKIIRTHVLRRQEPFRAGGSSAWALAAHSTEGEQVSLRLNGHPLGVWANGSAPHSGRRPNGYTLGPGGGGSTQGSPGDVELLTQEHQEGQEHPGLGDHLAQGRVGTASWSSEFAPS

DOR [7] = target: T1, DOR; assay: β-arrestin-recruitment TANGO assay at DOR; type: cell-based; details: 10 μM
KOR [8] = target: T2, KOR; assay: β-arrestin-recruitment TANGO assay at KOR; type: cell-based; details: 10 μM; vs naloxone 121 = 100% inhibition; agonist 109 (3 nM)
MOR [9] = target: T3, MOR; assay: β-arrestin-recruitment TANGO assay at MOR; type: cell-based; details: 10 μM
hSERT = hSERT (Homo sapiens, UniProt P31645); assay: biochemical; type: binding
β3 adrenergic receptor = β3 adrenergic receptor (Homo sapiens, UniProt P13945); assay: PDSP off-target binding, β3 adrenergic
rat σ2 receptor = target: T9, rat σ2 receptor (Rattus norvegicus, UniProt Q5U3Y7); assay: PDSP binding, σ2 receptor
T9 sequence (Q5U3Y7 1-176): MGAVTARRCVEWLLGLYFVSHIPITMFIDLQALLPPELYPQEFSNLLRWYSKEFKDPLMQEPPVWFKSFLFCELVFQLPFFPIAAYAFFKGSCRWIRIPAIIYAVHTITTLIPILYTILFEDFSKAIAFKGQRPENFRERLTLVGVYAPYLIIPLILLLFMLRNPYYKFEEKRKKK

T1 sequence (P41143 whole entry): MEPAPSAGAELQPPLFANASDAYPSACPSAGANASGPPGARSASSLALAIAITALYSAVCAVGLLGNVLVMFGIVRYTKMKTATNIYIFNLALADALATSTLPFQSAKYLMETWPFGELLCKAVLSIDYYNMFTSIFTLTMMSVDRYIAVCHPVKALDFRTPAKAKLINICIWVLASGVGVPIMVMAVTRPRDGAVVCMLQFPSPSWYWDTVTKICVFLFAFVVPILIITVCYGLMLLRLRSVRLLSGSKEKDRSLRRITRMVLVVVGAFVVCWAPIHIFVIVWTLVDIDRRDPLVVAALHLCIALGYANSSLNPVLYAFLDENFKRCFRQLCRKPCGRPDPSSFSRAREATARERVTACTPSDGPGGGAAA
T2 sequence (P41145 whole entry): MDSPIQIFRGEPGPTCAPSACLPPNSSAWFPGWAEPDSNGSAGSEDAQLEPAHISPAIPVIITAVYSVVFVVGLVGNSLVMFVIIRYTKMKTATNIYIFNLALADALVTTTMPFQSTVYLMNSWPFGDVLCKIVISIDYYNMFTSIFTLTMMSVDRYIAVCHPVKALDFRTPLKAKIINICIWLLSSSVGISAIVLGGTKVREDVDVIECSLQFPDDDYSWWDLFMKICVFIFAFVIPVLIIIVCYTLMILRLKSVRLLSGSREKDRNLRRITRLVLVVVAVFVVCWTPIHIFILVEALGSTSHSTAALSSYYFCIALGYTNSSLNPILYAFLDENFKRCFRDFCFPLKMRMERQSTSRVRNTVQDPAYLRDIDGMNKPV
T3 sequence (P35372 whole entry): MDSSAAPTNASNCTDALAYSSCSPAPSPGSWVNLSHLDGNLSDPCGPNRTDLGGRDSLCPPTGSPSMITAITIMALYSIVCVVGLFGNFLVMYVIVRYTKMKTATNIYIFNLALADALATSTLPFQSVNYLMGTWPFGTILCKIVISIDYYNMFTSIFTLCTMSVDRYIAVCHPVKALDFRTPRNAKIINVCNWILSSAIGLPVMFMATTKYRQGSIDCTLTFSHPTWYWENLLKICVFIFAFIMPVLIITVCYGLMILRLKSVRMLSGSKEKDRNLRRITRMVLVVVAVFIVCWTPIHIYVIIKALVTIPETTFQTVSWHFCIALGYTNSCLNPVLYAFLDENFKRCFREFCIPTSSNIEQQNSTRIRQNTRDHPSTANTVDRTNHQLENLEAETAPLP

| SMILES | DOR, inhibition of radioligand binding at 10 μM (class) (DOR [1]; Table 2) | Ki (KOR [2]) [µM] | MOR, inhibition of radioligand binding at 10 μM (class) (MOR [3]) | Ki (rat kidney TSPO) [µM] | DAT, inhibition, % of control at 10 μM (hDAT) | Ki (5HT2C serotonin receptor) [µM] | A3AR binding, % at 10 μM (m) (mA3AR) [%] | Ki (hA3AR) [µM] | Ki (5HT2B serotonin receptor) [µM] | Ki (DOR [1]) [µM] | Ki (MOR [3]) [µM] | further results |
| --- | --- | --- | --- | --- | --- | --- | --- | --- | --- | --- | --- | --- |
| CNc1nc(C#Cc2ccc(Br)s2)nc2c1ncn2[C@H]1[C@H](O)[C@H](O)[C@]2(C(=O)OC)C[C@H]12 [compound 23] | ^d (<30% inhibition of radioligand binding at 10 μM) | 2.09 ± 0.33 | ^c (30–50% inhibition of radioligand binding at 10 μM) | 8.12 ± 0.67 | –370% | 2.33 | 57 ± 1 | – | – | – | – | – |
| CCOC(=O)[C@@]12C[C@@H]1[C@@H](n1cnc3c(NC)nc(C#Cc4ccc(Cl)s4)cc31)[C@H](O)[C@@H]2O [compound 27] | ^d (<30% inhibition of radioligand binding at 10 μM) | – | ^d (<30% inhibition of radioligand binding at 10 μM) | 3.39 ± 0.64 | –354% | 0.4 | – | 0.0473 ± 0.0189 | 1.78 ± 0.28 | – | – | KOR binding inhibition at 10 μM (KOR [2]; 10 μM): < 10%; KOR, inhibition of radioligand binding at 10 μM (class) (KOR [2]; Table 2, 10 μM): ^d (<30% inhibition of radioligand binding at 10 μM); Ki (5HT2A serotonin receptor): 1.3 ± 0.29 µM; Ki (muscarinic M5 receptor): 3.85 µM |
| CNc1nc(C#Cc2ccc(Cl)s2)nc2c1ncn2[C@H]1[C@H](O)[C@H](O)[C@]2(C(=O)OC)C[C@H]12 [compound 22] | ^d (<30% inhibition of radioligand binding at 10 μM) | 3.13 ± 0.3 | ^c (30–50% inhibition of radioligand binding at 10 μM) | – | –352% | – | 36 ± 1 | – | – | – | – | TSPO, inhibition of radioligand binding at 10 μM (class) (rat kidney TSPO): ^c (30–50% inhibition of radioligand binding at 10 μM) |
| CCOC(=O)[C@@]12C[C@@H]1[C@@H](n1ccc3c(NCCc4ccccc4)nc(C#Cc4ccccc4)nc31)[C@H](O)[C@@H]2O [compound 43, Ethyl(1S,2R,3S,4R,5S)-2,3-dihydroxy-4-(4-(phenethylamino)-2-(phenylethynyl)-7H-pyrrolo[2,3-d]pyrimidin-7-yl)bicyclo[3.1.0]hexane-1-carboxylate] | – | 0.207 ± 0.021 | – | 0.48 ± 0.2 | 21% | – | – | 0.483 ± 0.062 | – | 0.627 ± 0.178 | 1.77 ± 0.54 | inhibition at 10 µM (hA1AR; read-out: binding inhibition at hA1AR (% at 10 μM)): 26%; inhibition at 10 µM (hA2AAR): < 10%; inhibition of agonist 98 in βarrestin2 assay (KOR [4]; 1 μM 98): did not inhibit; βarrestin2 recruitment, agonist effect relative to full agonist 98 (KOR [4]; agonist mode, highest concentrations): 30 ± 4.6%; inhibition of agonist 98 in cAMP assay (KOR [5]; 100 nM 98): did not inhibit; inhibition at 30 µM (KOR [5]; CHO, read-out: inhibition of cAMP accumulation, % inhibition at 30 μM): 23%; Ki [6]: 0.51 µM |
| CCOC(=O)[C@@]12C[C@@H]1[C@@H](n1cnc3c(NC)nc(C#Cc4ccc(Cl)s4)nc31)[C@H](O)[C@@H]2O [compound 24] | ^c (30–50% inhibition of radioligand binding at 10 μM) | 0.396 ± 0.029 | ^d (<30% inhibition of radioligand binding at 10 μM) | 1.29 ± 0.07 | – | – | 45 ± 5 | – | – | – | – | inhibition at 10 µM (mA1AR): 43%; inhibition at 10 µM (mA2AAR): 10%; DOR Antag (%) (DOR [7]; vs naloxone 121 = 100% inhibition): 35.3%; DOR Ag (%) (DOR [7]; vs standard agonist = 100%): 0.7%; KOR Antag (%) (KOR [8]): 58.2%; MOR Antag (%) (MOR [9]; vs naloxone 121 = 100% inhibition, agonist 99 (300 nM)): –13.4%; MOR Ag (%) (MOR [9]; vs standard agonist = 100%): 0.3% |
| CCOC(=O)[C@@]12C[C@@H]1[C@@H](n1ccc3c(NC)nc(C#Cc4ccc(Cl)s4)nc31)[C@@H]1OC(C)(C)O[C@@H]12 [compound 77, Ethyl(3aR,3bS,4aS,5R,5aS)-5-(2-((5-chlorothiophen-2-yl)ethynyl)-4-(methylamino)-7H-pyrrolo[2,3-d]pyrimidin-7-yl)-2,2-dimethyltetrahydrocyclopropa[3,4]cyclopenta[1,2-d][1,3]dioxole-3b(3aH)-carboxylate] | – | 0.052 ± 0.023 | – | – | –20% | 0.016 | – | 1.65 ± 0.33 | 4.18 | 1.99 ± 1.02 | 1.53 ± 0.56 | TSPO, inhibition of radioligand binding at 10 μM (class) (rat kidney TSPO): ^d (<30% inhibition of radioligand binding at 10 μM); selectivity at 5HT2CR compared with 5HT2BR (5HT2C serotonin receptor): 260 fold |
| CCOC(=O)[C@@]12C[C@@H]1[C@@H](n1ccc3c(NC)nc(I)nc31)[C@@H]1OC(C)(C)O[C@@H]12 [compound 73, Ethyl(3aR,3bS,4aS,5R,5aS)-5-(2-iodo-4-(methylamino)-7H-pyrrolo[2,3-d]pyrimidin-7-yl)-2,2-dimethyltetrahydrocyclopropa[3,4]cyclopenta[1,2-d][1,3]dioxole-3b(3aH)-carboxylate] | – | 0.276 ± 0.065 | – | > 10 | –39% | – | – | 4.05 ± 0.74 | – | > 10 | 7.6 | Ki (hA1AR): 1.11 µM; Ki (hSERT): 6.58 µM |
| CNC(=O)[C@@]12C[C@@H]1[C@@H](n1cnc3c(NCc4cccc(Cl)c4)nc(C#Cc4ccccc4)nc31)[C@H](O)[C@@H]2O [compound 6] | – | – | – | 2.65 ± 0.29 | 7% | – | – | – | 2.96 ± 0.6 | – | – | DOR, inhibition of radioligand binding at 10 μM (class) (DOR [1]; Table 1): ^e (30–50% inhibition of radioligand binding at 10 μM); Ki [6]: 6.3 µM; Ki (β3 adrenergic receptor): 2.6 µM; Ki (rat σ2 receptor): 1.54 µM |
